Measured values from patent US20050009772A1, “Methods and compositions for the treatment of glaucoma and other retinal diseases” (The Regents of the University of California, priority 2003, published 2005).
Entries after “also recorded” stand apart in the source; their conditions may differ.

How the values were obtained:
[1] = test system: cells in the retinal ganglion cell layer (RGCL); assay: Counting of cresyl violet-stained cells in the RGCL in rat glaucoma model (Experiment 2); assay type: in vivo
Description: GGA was then given twice a week at the same dose until euthanasia. Sustained elevation of intraocular pressure (IOP) was maintained by performing trabecular laser photocoagulation three weeks after the first photocoagulation. […] IOP and body weight were measured once a week. After 5 weeks of IOP elevation, the number of retrogradely labeled RGCs with dextran tetramethylrhodamine (DTMR) was counted (n=53). The grading of optic nerve injury and the counting of cresyl violet-stained cells in the retinal ganglion cell layer (RGCL) was also performed (n=54).
Rats were anesthetized with intramuscular injections of 0.8 ml/kg of the anesthetic cocktail described above. A previously published procedure was modified to produce chronic moderately elevated IOP unilaterally, while the untreated contralateral eye served as the comparative control.40 Animals were injected intracamerally with 10 μl of 35% India ink (Becton Dickinson, Cockeysville, Md.) in 0.01 M PBS after removing a similar volume of aqueous. At the end of the procedure, Tobrex ophthalmic ointment (tobramycin 0.3%; Alcon, Fort Worth, Tex.) was applied topically. Five days after intracameral injection of India ink, a dark band at the limbus was noted due to the aggregation of carbon particles in the trabecular meshwork.38 After anesthesia, approximately 200 laser burns were delivered ab externo to the pigmented trabecular band at laser settings of 200 μm diameter, 200 mW power and 0.2 seconds duration. Three weeks after the first laser treatment, another trabecular laser photocoagulation was performed without further injection of ink.
Corresponding loss of cells from the RGCL was evaluated by counting cells in the RGCL in cresyl violet-stained retinas. After collecting the optic nerves, enucleated eyeballs were postfixed in 10% neutral buffered formalin for 1 hour and washed in 0.1 M phosphate buffer (pH 7.4). The retinas were dissected and flat mounted on a slide, vitreal side up. Four radial cuts were made in the peripheral retinas. The specimens were dried overnight, stained with 1% cresyl violet, dehydrated, and covered with coverslips. Morphologically distinguishable glial cells and vascular endothelial cells were not counted. Cells with cytoplasm rich in Nissl substance and with irregular outlines were counted as neurons.43 The numbers of neurons in the RGCL in regions 1 mm (posterior), 2 mm (mid-peripheral) and 3 mm (peripheral) from the center of the optic nerve head were taken with an eye-piece reticule of a microscope at 400× magnification. The counting was performed by two investigators in a masked fashion and averaged.

[2] = test system: retinal ganglion cells (RGCs); assay: Density of DTMR-labeled RGCs in rat glaucoma model (Experiment 2); assay type: in vivo
Description: GGA was then given twice a week at the same dose until euthanasia. Sustained elevation of intraocular pressure (IOP) was maintained by performing trabecular laser photocoagulation three weeks after the first photocoagulation. […] IOP and body weight were measured once a week. […] Rats were anesthetized with intramuscular injections of 0.8 ml/kg of the anesthetic cocktail described above. A previously published procedure was modified to produce chronic moderately elevated IOP unilaterally, while the untreated contralateral eye served as the comparative control.40 Animals were injected intracamerally with 10 μl of 35% India ink (Becton Dickinson, Cockeysville, Md.) in 0.01 M PBS after removing a similar volume of aqueous. At the end of the procedure, Tobrex ophthalmic ointment (tobramycin 0.3%; Alcon, Fort Worth, Tex.) was applied topically. Five days after intracameral injection of India ink, a dark band at the limbus was noted due to the aggregation of carbon particles in the trabecular meshwork.38 After anesthesia, approximately 200 laser burns were delivered ab externo to the pigmented trabecular band at laser settings of 200 μm diameter, 200 mW power and 0.2 seconds duration. Three weeks after the first laser treatment, another trabecular laser photocoagulation was performed without further injection of ink. […] A cross section of the optic nerve was made with the needle knife through the opening of the optic nerve sheath, with care not to damage the adjacent blood supply. DTMR crystals were applied to the proximal cut surface of the optic nerve to label RGCs by fast retrograde axonal transport. After euthanasia and enucleation, the retinas were dissected and flattened with four radial cuts (superotemporal, inferotemporal, superonasal, and inferonasal). They were placed with vitreal side up on glass slides, dried in the dark at room temperature overnight and mounted. The retinas were examined with a fluorescence microscope (Axioplan; Carl Zeiss, Oberkochen, Germany) equipped with a filter that permits visualization of rhodamine fluorescence (excitation filter BP 546, barrier filter LP590; Carl Zeiss). The counting of RGCs was conducted by 2 examiners in a masked fashion. […] Each rectangular area measured 0.475 mm×0.362 mm and the total counted area corresponded to approximately 3.1% of each total retinal area. Data are expressed as number of RGCs per mm2.

[3] = test system: HSP72; assay: Quantitative immunohistochemical analysis of HSP72 in the RGCL after 1 week of IOP elevation (Experiment 3); assay type: in vivo, rat; conditions: quercetin = co-administered with GGA
Description: TdT-mediated biotin-dUTP nick end labeling (TUNEL) and immunohistochemical analysis for HSP72 and HSC70 were performed.
Animals were deeply anesthetized with intramuscular injections of 0.8 ml/kg of a cocktail of 5 ml ketamine (100 mg/ml), 2.5 ml xylazine (20 mg/ml), 1.0 ml acepromazine (10 mg/ml), and 1.5 ml normal saline. Then they were transcardially perfused with 4% paraformaldehyde in 0.1 M phosphate buffer. The enucleated eyeballs were immersed in fixative for 1 hour, bisected and post-fixed overnight. The eyes were embedded in paraffin and sectioned at a four-μm thickness along the vertical meridian through the optic nerve head. After deparaffinization and hydration, a species-specific Vectastain ABC kit (Vector Laboratories, Inc., Burlingame, Calif.) was chosen to match the species of primary antibody and the manufacturer's procedures were followed. The tissue sections were incubated with blocking serum solution in PBS for 1 hour. This was followed by incubation with primary antibody at 4° C overnight. The antibodies were mouse monoclonal antibody against HSP72 (1:500; StressGen Biotechnologies Corp., Victoria, British Columbia, Canada), goat polyclonal antibody against HSP72 (1:1000; Santa Cruz Biotechnology, Inc., Santa Cruz, Calif.) or rat monoclonal antibody against HSC70 (1:200; StressGen). Antigen-antibody complexes were detected by an avidin-biotin-peroxidase technique (Vectastain ABC Kit; Vector Laboratories). Diaminobenzidine (DAB) was used to produce a brown color in the target tissue and the slides were permanently mounted. As a negative control, alternate retinal section was incubated with blocking solution by replacing the primary antibody or with anti-rabbit secondary antibody by replacing the original secondary antibody.
Immunohistochemical staining was analyzed quantitatively with a computer-assisted image processing unit (Image-Pro Plus software, Media Cybernetics, Silver Spring, Md.) and the “count-measure” function. Images of immuno-stained sections were captured with a digital camera (Cool snap, RS Photometric, Tucson, Ariz.) attached to the microscope (Axio plan, Carl Zeiss, Oberkochen, Germany) at 630× magnification under oil immersion. The system was calibrated according to the supplier's manual before the analysis. For each digital image, all individual cells in the RGCL were marked by a masked examiner and the optical density of each cell was measured. The relative intensities of cells in the RGCL were measured and averaged (±SEM) to yield a single value representing one retina.

[4] = contralateral controls (normal IOP)
[5] = retinas with IOP elevation, 5 weeks

Geranylgeranylacetone [GGA]
cells in the RGCL (cresyl violet) ([1]; 5 weeks of elevated IOP): 2697±70 cells/mm2
effect on loss of cells in the RGCL (in words) ([1]; 5 weeks of elevated IOP): inhibited the loss of cells
cells in the RGCL (cresyl violet) ([1]; contralateral control retinas): 2644±59 cells/mm2
effect on number of cells in the RGCL (in words) ([1]; contralateral control retinas): no significant effect
density of DTMR-labeled RGCs [2, 4]: 1077±48 cells/mm2
density of DTMR-labeled RGCs vs vehicle-treated controls (in words) [2, 4]: no statistical significance
density of DTMR-labeled RGCs [2, 5]: 1044±36 cells/mm2
more DTMR-labeled cells preserved compared with vehicle [2, 5]: 57%
effect on density of DTMR-labeled RGCs (in words) ([2]; retinas with IOP elevation, 5 weeks, quercetin = co-administered with GGA): higher density; also recorded: partial
HSP72 expression (immunoreactive intensity) in the RGCL ([3]; control (normal IOP) retinas vs vehicle-alone controls): increased expression of HSP72; also recorded: Increased immunoreactivity of HSP72
HSP72 expression (immunoreactive intensity) in the RGCL ([3]; retinas with IOP elevation, 1 week): apparently further increased
